In US10265275B2, “Phenolic coatings and methods of making and using same” (Northwestern University, priority 2013, dated 2019):
Read-outs that look alike come from different tables or passages of the source.

Assay: Potentiometric titration, first pKa
Assay type: physicochemical
Procedure: In order to investigate the relationship between coating pH and deprotonation, coating precursor molecules were studied via potentiometric titrations. A solution of tannic acid was made by dissolving ˜1 mg in 2 mL of 100 mM KCl in a glass test tube to perform the titration. The TA and KOH solutions were degassed by aggressively sparging argon for no less than 30 min. Base was titrated in 1.0 μL increments, and the total amount added was 250 μL. If oxygen is purged correctly, the phenolic solution should display little or no change in color throughout the titration. The first pKa was calculated by initially plotting the volume of base added versus pH. The first derivative of this curve was then plotted as a function of pH, and the pKa was calculated by determining the pH associated with any local maxima.

[1] = aqueous 100 mM KCl solution, 100 mM KCl, degassed, KOH titration, read-out: First pKa
[2] = first pKa minus optimal coating pH

| pKa | pKa − pH | pKa [1] | pKa − pH [2] | First pKa (100 mM KCl, degassed, KOH titration) | Compound |
| --- | --- | --- | --- | --- | --- |
| 9.1 | 3.1 | – | – | – | Oc1ccc(O)c(O)c1 [HHQ, hydroxyhydroquinone] |
| – | – | 9.5 | 1.5 | – | Oc1ccccc1O [Catechol, catechol] |
| 7.7 | 0.7 | – | – | – | O=C(OC[C@H]1O[C@@H](OC(=O)c2cc(O)c(O)c(OC(=O)c3cc(O)c(O)c(O)c3)c2)[C@H](OC(=O)c2cc(O)c(O)c(OC(=O)c3cc(O)c(O)c(O)c3)c2)[C@@H](OC(=O)c2cc(O)c(O)c(OC(=O)c3cc(O)c(O)c(O)c3)c2)[C@@H]1OC(=O)c1cc(O)c(O)c(OC(=O)c2cc(O)c(O)c(O)c2)c1)c1cc(O)c(O)c(OC(=O)c2cc(O)c(O)c(O)c2)c1 [Tannic acid, tannic acid] |
| – | – | – | 1.1 | 8.1 | epigallocatechin-3-gallate [EGCG] |
| – | 2.3 | 9.3 | – | – | Oc1cccc(O)c1O [PG, 1,2,3-trihydroxybenzene] |
